Data set [1] can be described thus: in vitro. The class given is in vitro ADME. The settings on record: isolated enzyme chymotrypsin, pH 7.8. The method, then:
Peptide stability was evaluated by modifying previously described procedures. , The assays were performed in human serum and in the presence of proteolytic enzymes such as trypsin and chymotrypsin. For human serum stability, 2 mM peptide stock solutions were prepared in water and mixed with human serum (from male AB plasma, USA origin, sterile-filtered, Merck/Sigma-Aldrich, USA) to obtain a final concentration of 200 μM [human plasma/stock solution (9:1, v/v)]. The mixtures were incubated at 37 ± 1 °C, and 50 μL aliquots were taken at predetermined time intervals (0, 1, 2, 4, 8, and 24 h). Protease activity was quenched by adding 100 μL of acetonitrile (MeCN). The resulting cloudy suspensions were cooled to 4 °C for 30 min and centrifugated at 12,000 rpm for 10 min to remove the serum proteins. Then, the supernatants were analyzed by analytical HPLC (Shimadzu Nexera Liquid Chromatograph LC-30AD) which was equipped with a Phenomenex Kinetex reversed-phase column (C18, 5 μm, 100 Å, 150 mm × 4.6 mm) with a flow rate of 1 mL/min using a gradient of MeCN (0.1% TFA) in water (0.1% TFA), from 10 to 70% over 15 min, and UV detection at 220 nm. For enzyme stability, each peptide peptide (200 μM) was incubated with trypsin (0.5 μM) in PBS 1× (pH 7.2) or with chymotrypsin (0.005 μM) in Tris–HCl (100 mM, pH 7.8). Samples (50 μL) were collected at 0, 1, 2, 4, and 24 h, quenched with 0.5% TFA in water, and analyzed by HPLC under chromatographic conditions as described above. All experiments were conducted in triplicate. The percentage of intact peptides at each time point was determined by integrating the corresponding HPLC peak areas.

For data set [2], the system named is Gram-negative bacteria tested. Description: MIC panel, Gram-negative strains (geometric mean). The class given is cell-based. As to conditions: geometric mean of the MICs against Gram-negative bacteria tested. As for the experimental part:
(§1) The antimicrobial efficacy of the TLcyc analogues was assessed against a representative panel of Gram-positive and Gram-negative bacterial strains, by determining their minimal inhibitory concentrations (MIC), as summarized in Table . To provide an integrated measure of antimicrobial potency, we calculated the geometric mean (GM) of MIC values across all strains (GMall), as well as separately for Gram-positive (GMGram+) and Gram-negative (GMGram–) bacteria.
(§2) Bacterial strains used in this study were the Gram-positive S. aureus ATCC 25923, S. epidermidis ATCC 12228, B. megaterium BM11, S. agalactiae ATCC 27591, E. faecalis ATCC 29212 and the Gram-negative E. coli ATCC 25922, P. aeruginosa ATCC 27853, A. baumannii ATCC 19606, E. coli D21 and P. aeruginosa PAO1. […] Bacterial cells in the mid log phase were diluted in Muller Hinton (MH) at a concentration of 2 × 10^6 cell/mL. Aliquots of 50 μL of this bacterial suspension were added to 50 μL of MH containing serial 2-fold dilutions of the peptides (from 100 to 0.19 μM) in the wells a 96-well plate. Ciprofloxacin was used as antibiotic control. The plate was then incubated at 37 °C. MICs were obtained from three identical readings of four independent experiments.

Data set [3] has as its system all bacteria tested. As to the kind of experiment: MIC panel, geometric mean over all strains. As to conditions: geometric mean of the MICs against all bacteria tested. It counts as cell-based. The method, then:
as §1, §2

Data set [4] concerns E. coli ATCC 25922. Description: microbe, parasite or virus in culture. The class given is cell-based. The settings on record: ATCC 25922. The method, boiled down: (§3)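 MICs were taken as three identical readings from four independent experiments, using mid-log cells at 2 × 10^6 cell/mL in Mueller Hinton medium incubated at 37 °C.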
Data set [5] relates to S. epidermidis ATCC 12228. Description: microbe, parasite or virus in culture. The settings on record: ATCC 12228. It counts as cell-based. The method, boiled down:
as §3

Data set [6] concerns A. baumannii ATCC 19606. As to the kind of experiment: microbe, parasite or virus in culture. The class given is cell-based. The settings on record: ATCC 19606. The method, boiled down:
as §3

The subject of data set [7] is S. agalactiae ATCC 27591. Description: microbe, parasite or virus in culture. The class given is cell-based. As to conditions: ATCC 27591. The method, boiled down: as §3
In data set [8] the test system is P. aeruginosa PAO1. Description: microbe, parasite or virus in culture. As to conditions: PAO1. The class given is cell-based. The method, boiled down:
as §3

In data set [9] the test system is S. aureus ATCC 25923. As to the kind of experiment: microbe, parasite or virus in culture. The class given is cell-based. The settings on record: ATCC 25923. In outline: as §3
In data set [10] the test system is E. coli D21. As to the kind of experiment: microbe, parasite or virus in culture. It counts as cell-based. The settings on record: D21. The method, boiled down:
as §3

Data set [11] relates to E. faecalis ATCC 29212. As to the kind of experiment: microbe, parasite or virus in culture. It counts as cell-based. The settings on record: ATCC 29212. In outline: as §3
The test system of data set [12] is B. megaterium BM11. Description: microbe, parasite or virus in culture. It counts as cell-based. The settings on record: BM11. The method, boiled down: as §3
In data set [13] the test system is P. aeruginosa ATCC 27853. Description: microbe, parasite or virus in culture. The class given is cell-based. The settings on record: ATCC 27853. The method, boiled down: as §3
Data set [14] concerns Gram-positive bacteria tested. Description: MIC panel, Gram-positive strains (geometric mean, range). The class given is cell-based. The settings on record: geometric mean of the MICs against Gram-positive bacteria tested. The method, then:
as §1, §2

Data set [15] deals with P. aeruginosa ATCC 27853. It counts as cell-based. As for the experimental part: The ability of peptides to alter the bacterial membrane permeability of planktonic cells of S. aureus ATCC 25923 and P. aeruginosa ATCC 27853 was determined by the Sytox Green assay. Approximately 1 × 10^6 cells in 100 μL of PBS were combined with 1 μM Sytox Green in the dark for 5 min. The fluorescence intensity was monitored using a microplate reader (Infinite M200, Tecan), with excitation and emission at λ = 485 and 535 nm, respectively. Peptides were added (time = 0) at three different concentrations (i.e., 3.12, 6.25, and 12.5 μM). Increase in the fluorescence intensity is due to the binding of the dye to intracellular nucleic acids. Controls consisted of cells that were not exposed to the peptides. The values correspond to one representative experiment out of three independent experiments.

Data on one compound can be found in publication PMC12703733, “Probing Guanidino Pendant or Bridged Groups in Cyclic Antimicrobial Peptides Derived from Temporin L: A Strategy to Improve Efficacy against Gram-Negative Bacteria” (Journal of Medicinal Chemistry, 2025).

The structures appear in SMILES notation. In brackets after ≈: the same amount, converted by molar mass. Bridge positions count the residues as written; N and C are the ends. Square brackets hold non-standard residues; d marks the D form. Peptide text beside a SMILES is read from it.

Turning to `CC[C@H](C)[C@H](NC(=O)[C@H](CCCNC(=N)N)NC(=O)[C@H]1CCC(=O)NCCCC[C@H](NC(=O)[C@H](Cc2ccccc2)NC(=O)[C@H](Cc2c[nH]c3ccccc23)NC(=O)[C@@H]2CCCN2C(=O)[C@@H](NC(=O)[C@@H](N)Cc2ccccc2)C(C)C)C(=O)N[C@@H](CCCCN)C(=O)N[C@@H](Cc2ccccc2)C(=O)N[C@H](CC(C)C)C(=O)N1)C(=O)N[C@@H](CC(C)C)C(N)=O` [Peptide 2, FVPWF[KKFle]RIL] (H-FVPWFKKF[dL][dE]RIL-NH2; lactam 6-10), the share remaining (usually the share of the starting amount still present when the sample was taken) at 4 h, 200 μM in [1] was about 20%. For the same compound, the “geometric mean GMGram–” value in [2] was found to be 16.4 µM. For the same compound, in data set [3], the “geometric mean GMall” value came out at 8.81 µM. Further, the MIC in [4] was 6.25 µM (≈ 10.7 µg/mL); in data set [5], 3.12 µM (≈ 5.32 µg/mL); in [6] it was 6.25 µM (≈ 10.7 µg/mL); in [7], 3.12 µM (≈ 5.32 µg/mL); in data set [8], 50 µM (≈ 85.2 µg/mL); in [9] it was 12.5 µM (≈ 21.3 µg/mL). In addition, the MIC in [10] came out at 12.5 µM (≈ 21.3 µg/mL); in [11], 25 µM (≈ 42.6 µg/mL); in data set [12] it was 0.78 µM (≈ 1.33 µg/mL); in data set [13] it was 50 µM (≈ 85.2 µg/mL). Further, the “geometric mean GMGram+” value in data set [14] was 4.72 µM. For the same compound, the “membrane permeabilization, Sytox Green fluorescence (in words)” value in [15] is given as “lower intensity”.
